Test results published in US6197575A, “Vascularized perfused microtissue/micro-organ arrays” (Massachusetts Institute of Technology, priority 1999, dated 2001).

Experiments:
P450 1A1 = assay: EROD assay (7-ethoxyresorufin O-dealkylation) in perfused bioreactor chip of hepatocytes and endothelial cells; assay type: cell-based, rat
Procedure: Bioreactor constructs using an assay that measures the activity of one representative P450 isozyme, cytochrome P450 1A1, was evaluated. This enzyme is present in all mammalian species and is highly inducible by polycyclic aromatic hydrocarbons as well as other agents. 7-Ethoxyresorufin is a selective substrate of rat P450 1A1 which catalyzes its de-ethylation to the highly fluorescent resorufin. Subsequent to P450 1A1 catalyzed de-ethylation, resorufin can be exported from the cell or undergo phase II conjugation. There are two possible phase II conjugation products resulting from the enzyme catalyzed addition of sulfate or glucoronic acid to the 7-hydroxyl group of resorufin. Thus, from this assay one can quantitatively determine the activity of P450 1A1 and the phase II conjugation enzymes. […]
The 7-ethoxyresorufin O-dealkylation (EROD) assay involved dissolving the substrate into the chemically defined media (final concentration of 10-20 μM) and perfusing it through the tissue array. The effluent was collected in sequential fractions which then were analyzed by fluorescence detection for the presence of resorufin. Total conversion within each fraction was determined by incubating an aliquot from the fraction with enzymes that hydrolyze the phase II conjugates of resorufin back to the free alcohol. […]

cells = settings: tethered to silicon substrates; cited from earlier work

With Cc1ccc2cc3c(ccc4ccccc43)c3c2c1CC3 [3-methylcholanthrene] the “increase in absolute level of resorufin formation” value (P450 1A1; bioreactor treated for final 24 hours in static culture, attomoles resorufin formed per minute per hepatocyte) was “approximately five”.
For O=c1cc(-c2ccccc2)oc2c1ccc1ccccc12 [naphthoflavone], the “enzyme activity (resorufin formation) in presence and after removal of inhibitor” value (P450 1A1; 20 μM inhibitor with 10 μM ethoxyresorufin, t=240-385 min) was “inhibited by the inclusion of a reversible inhibitor to the media and then recovered when the inhibitor was removed”.
For “Tethered EGF: epidermal growth factor (EGF) tethered to silicon substrates”, the “biological activity after tethering” value (cells) is given as “retained full biological activity” and the stimulation of cells (cells) is given as “stimulate cells in a dose-dependent manner”.
